This note sets out measurements from PubChem BioAssay (NCI).

Test systems include SK-MEL-28 melanoma; SN12C renal; ACHN renal; SK-MEL-5 melanoma; HT29 colon; NCI-H23 lung; HCT-116 colon; MDA-MB-435.
Common to all, as to assay: NCI tumour cell line growth inhibition, 48 h

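In this assay, cells in 96-well plates receive the compound at five concentrations for 48 hours. Endpoints are linearly interpolated between the surrounding concentrations. Abbreviation: GI50, concentration required for 50% inhibition of growth. TGI marks complete inhibition of growth.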 Some results are limits rather than exact numbers.

On to `CC1=C([Se]CC(OC(=O)[C@@H](CSSC(C)(C)C)NC(=O)C(C)(C)C)C(=O)NCCCCCC(=O)OCc2ccccc2)C(=O)c2ccccc2C1=O` (stereo not given in full), for which the GI50 with SK-MEL-28 melanoma was 1.92 µM; in the test with SN12C renal, 2 µM; in the test with ACHN renal it was 2.16 µM; in the test on SK-MEL-5 melanoma it was 1.89 µM; in the test on HT29 colon it was 2.69 µM; in the test on NCI-H23 lung it was 2.4 µM. Further, the GI50 is 1.53 µM with HCT-116 colon and 2.28 µM in the test on MDA-MB-435. The TGI in the test on SK-MEL-28 melanoma amounted to 3.53 µM; with SN12C renal it was 3.89 µM; in the test on ACHN renal it was 4.94 µM; in the test on SK-MEL-5 melanoma, 3.34 µM; with HT29 colon it was 7.34 µM; in the test on NCI-H23 lung, 7.1 µM. Also, the TGI in the test with HCT-116 colon came to 3.68 µM; in the test with MDA-MB-435, 5.55 µM.

On to `Nc1ccn(C2OC(COP(=O)(O)O)C(O)C2O)c(=O)n1` (stereo not given), for which the TGI in the test on SK-MEL-28 melanoma is greater than 100 µM; with SN12C renal it was greater than 100 µM; in the test on ACHN renal, greater than 41.4 µM; with SK-MEL-5 melanoma it was greater than 100 µM; in the test on HT29 colon, greater than 100 µM; with NCI-H23 lung it was greater than 100 µM. For the same compound, the TGI in the test with HCT-116 colon and in the test with MDA-MB-435 was greater than 100 µM throughout.

Regarding `CCOC(=O)CCc1c(C)c2ccc(O)cc2oc1=O`, the TGI with SK-MEL-28 melanoma, in the test with SN12C renal, in the test on ACHN renal, in the test on SK-MEL-5 melanoma, in the test with HT29 colon and in the test on NCI-H23 lung was greater than 100 µM each time. The TGI in the test with HCT-116 colon and with MDA-MB-435 was greater than 100 µM each time.

Take `CCN(CC)CCCC(C)N/C(c1cccc(OC)c1)=c1\c(=O)[nH]n(-c2c3ccccc3nc3ccccc23)c(=O)\c1=C(/NC(C)CCCN(CC)CC)c1cccc(OC)c1` (stereo not given): the GI50 with SK-MEL-28 melanoma was 1.69 µM; in the test on SN12C renal, 1.74 µM; in the test on ACHN renal, 0.508 µM; in the test on SK-MEL-5 melanoma it was 1.7 µM; in the test with HT29 colon it was 0.591 µM; with NCI-H23 lung it was 2.02 µM. Besides, the GI50 in the test on HCT-116 colon is 0.491 µM; in the test with MDA-MB-435 it was 1.45 µM. In addition, the TGI in the test on SK-MEL-28 melanoma amounted to 3.17 µM; with SN12C renal, 10.8 µM; in the test with ACHN renal, 2.35 µM; in the test with SK-MEL-5 melanoma it was 3.13 µM; with HT29 colon it was 2.51 µM; with NCI-H23 lung, 4.69 µM. Besides, the TGI in the test on HCT-116 colon is 3.25 µM; with MDA-MB-435, 2.98 µM.

`Fc1ccc(Nc2ccc3cc(OCCCN4CCOCC4)ccc3n2)cc1F`: the GI50 in the test on SK-MEL-28 melanoma is 1.87 µM; with SN12C renal, 9.77 µM; in the test with ACHN renal, 4.2 µM; in the test on SK-MEL-5 melanoma, 1.75 µM; in the test with HT29 colon, 2.06 µM; in the test on NCI-H23 lung, 3.93 µM. The GI50 in the test on HCT-116 colon was 4.5 µM; in the test with MDA-MB-435, 3.26 µM. The TGI in the test with SK-MEL-28 melanoma is 3.93 µM; in the test on SN12C renal it was greater than 100 µM; in the test on ACHN renal, 30.7 µM; with SK-MEL-5 melanoma, 3.49 µM; with HT29 colon it was 5.47 µM; with NCI-H23 lung it was greater than 100 µM. The TGI was greater than 100 µM with HCT-116 colon and 68 µM in the test with MDA-MB-435.

As to `N#Cc1c(N)nc(N2CCOCC2)c(C#N)c1-c1cccc(O)c1`, the GI50 in the test on SK-MEL-28 melanoma was greater than 100 µM; with SN12C renal it was 69 µM; in the test with SK-MEL-5 melanoma, greater than 100 µM; in the test on HT29 colon, greater than 100 µM; with NCI-H23 lung it was 54.8 µM; in the test on HCT-116 colon, greater than 100 µM. Besides, the GI50 with MDA-MB-435 is greater than 100 µM. Further, the TGI in the test on SK-MEL-28 melanoma, with SN12C renal, in the test on SK-MEL-5 melanoma, in the test on HT29 colon, in the test with NCI-H23 lung and with HCT-116 colon was greater than 100 µM in each case. In the test on MDA-MB-435, this compound returned a TGI greater than 100 µM.

`COc1cc(/C=C2\C[C@H]3[C@@H]4CC=C5C[C@@H](OC(C)=O)CC[C@]5(C)[C@H]4CC[C@]3(C)[C@H]2OC(C)=O)ccc1OCCCn1ccnc1`: the GI50 with SK-MEL-28 melanoma is 15.9 µM; in the test with SN12C renal, 8.84 µM; in the test with ACHN renal, 8.49 µM; in the test with SK-MEL-5 melanoma it was 7.25 µM; in the test with HT29 colon, 18.5 µM; in the test on NCI-H23 lung, 9.94 µM. In addition, the GI50 in the test with HCT-116 colon was 7.78 µM; with MDA-MB-435, 10.2 µM. Further, the TGI was greater than 50 µM with SK-MEL-28 melanoma; 21.9 µM in the test on SN12C renal; 15.9 µM in the test with ACHN renal; 15.4 µM in the test on SK-MEL-5 melanoma; greater than 50 µM in the test on HT29 colon; 21.1 µM in the test with NCI-H23 lung. The TGI was determined as 17.2 µM in the test with HCT-116 colon and 22.1 µM with MDA-MB-435.

With `CCOC(=O)c1ccc2[nH]c(Cc3[nH]c4ccc(C(=O)OCC)cc4c3C)c(C)c2c1`, the GI50 was 5.26 µM in the test on SK-MEL-28 melanoma; 4.92 µM in the test on SN12C renal; 2.28 µM in the test on ACHN renal; 1.22 µM with SK-MEL-5 melanoma; 0.821 µM in the test with HT29 colon; 6.35 µM in the test with NCI-H23 lung. Also, the GI50 was 0.556 µM in the test on HCT-116 colon and 3.53 µM with MDA-MB-435. The TGI with SK-MEL-28 melanoma worked out at 22.8 µM; in the test on SN12C renal, 24.7 µM; in the test with ACHN renal, 15.8 µM; with SK-MEL-5 melanoma, 14.5 µM; with HT29 colon, 8.2 µM; in the test on NCI-H23 lung it was 25.8 µM. Also, the TGI in the test on HCT-116 colon was 8.58 µM; with MDA-MB-435, 48.8 µM.

For the compound `O=C1NC(=O)[C@H]2C3C=CC([C@@H]12)[C@@H]1C(=O)NC(=O)[C@H]31`, the TGI in the test on SK-MEL-28 melanoma, in the test with SN12C renal, with ACHN renal, in the test with SK-MEL-5 melanoma, in the test with NCI-H23 lung and with HCT-116 colon was greater than 100 µM throughout. Further, in the test with MDA-MB-435, the TGI was greater than 100 µM.

`OCC1OC(O)C(N=Cc2ccc3c(c2)OCO3)C(O)C1O` (stereo not given): the TGI in the test on SK-MEL-28 melanoma, in the test on SN12C renal, with ACHN renal, with SK-MEL-5 melanoma, in the test on HT29 colon and with NCI-H23 lung was greater than 100 µM each time. Also, the TGI with HCT-116 colon and in the test with MDA-MB-435 was greater than 100 µM throughout.
